Earlier results on one compound are cited in US12433839B2, “Sustained release particle formulations” (Adare Pharmaceuticals USA, Inc., priority 2011, dated 2025).

The conditions of the series: in vivo.

For the compound `COc1ccccc1OCC(O)CO` (stereo not shown) [guaifenesin], the typical plasma half-life result is recorded as “about one”.
